In ChEMBL document CHEMBL1151117, “Irritant principles of the spurge family (Euphorbiaceae). XIII. Oligocyclic and macrocyclic diterpene esters from latices of some Euphorbia species utilized as source plants of honey” (J Nat Prod, 1988):

How the values were obtained:
Format in all cases: ADME, organism-based
Mus musculus [1] = species: Mus musculus; test: Skin irritant activity in SIM mouse ear assessed as irritation unit per ear after 24 hrs; conditions: in vivo
Mus musculus [2] = species: Mus musculus; test: Skin irritant activity in NMRI mouse ear assessed as irritant dose 50 per ear after 24 hrs; conditions: in vivo, topical_or_ocular
Mus musculus [3] = species: Mus musculus; test: Skin irritant activity in NMRI mouse ear assessed as irritancy 50 after 24 hrs; conditions: in vivo

SMILES	Activity (Mus musculus [1])	Activity (Mus musculus [2])	Activity (Mus musculus [3])
C/C=C(\C)C(=O)O[C@@H]1[C@@H]2[C@H]([C@H](OC(=O)C(C)CC)[C@H](OC(C)=O)/C(C)=C/[C@@]34O[C@@]3(C[C@H](C)[C@@H]4OC(C)=O)C(=O)[C@@H]1C)C2(C)C (some centres not stated)	> 1000 µg	–	–
C/C=C(\C)C(=O)O[C@@]12C[C@@H](C)[C@@]3(O)[C@@H](C=C(COC(C)=O)C[C@]4(O)C(=O)C(C)=C[C@@H]34)[C@@H]1C2(C)C	–	1.2 nmol	0.8 nmol⁻¹
C/C=C(/C)C(=O)O[C@@]12C[C@@H](C)[C@@]3(O)[C@@H](C=C(CO)C[C@]4(O)C(=O)C(C)=C[C@@H]34)[C@@H]1[C@@]2(C)COC(=O)C(C)C	–	0.25 nmol	4 nmol⁻¹
C/C=C(\C)C(=O)O[C@@]12C[C@@H](C)[C@@]3(O)[C@@H](C=C(CO)C[C@]4(O)C(=O)C(C)=C[C@@H]34)[C@@H]1C2(C)C	–	0.28 nmol	3.6 nmol⁻¹
CC(=O)OCC1=C[C@H]2[C@@H]3C(C)(C)[C@]3(OC(=O)C(C)C)C[C@@H](C)[C@]2(O)[C@@H]2C=C(C)C(=O)[C@@]2(O)C1	–	1.5 nmol	0.7 nmol⁻¹
C/C=C(/C)C(=O)O[C@@]12C[C@@H](C)[C@@]3(O)[C@@H](C=C(COC(C)=O)C[C@]4(O)C(=O)C(C)=C[C@@H]34)[C@@H]1[C@@]2(C)COC(=O)C(C)CC (some centres not stated)	–	2.4 nmol	0.4 nmol⁻¹
C/C=C(\C)C(=O)O[C@@H]1[C@@H]2[C@H]([C@H](OC(=O)/C(C)=C/C)[C@H](OC(C)=O)/C(C)=C/[C@@]34O[C@@]3(C[C@H](C)[C@@H]4OC(C)=O)C(=O)[C@@H]1C)C2(C)C	> 1000 µg	–	–
C/C=C(\C)C(=O)O[C@H]1[C@H]2[C@@H]([C@@H](O)[C@@H](C)C(=O)[C@@]34C[C@H](C)[C@H](OC(C)=O)[C@]3(/C=C(\C)[C@H]1OC(=O)C(C)CC)O4)C2(C)C (some centres not stated)	> 1000 µg	–	–
C/C=C(/C)C(=O)O[C@@]12C[C@@H](C)[C@@]3(O)[C@@H](C=C(COC(C)=O)C[C@]4(O)C(=O)C(C)=C[C@@H]34)[C@@H]1[C@@]2(C)COC(=O)C(C)C	–	0.91 nmol	1.1 nmol⁻¹
C/C=C(\C)C(=O)O[C@@H]1[C@@H]2[C@H]([C@H](OC(=O)/C(C)=C/C)[C@H](OC(C)=O)/C(C)=C/[C@@]34O[C@@]3(C[C@H](C)[C@@H]4O)C(=O)[C@@H]1C)C2(C)C	> 1000 µg	–	–
C/C=C(\C)C(=O)O[C@@H]1[C@@H]2[C@H]([C@H](OC(C)=O)[C@H](OC(C)=O)/C(C)=C/[C@@]34O[C@@]3(C[C@H](C)[C@@H]4OC(C)=O)C(=O)[C@@H]1C)C2(C)C	> 1000 µg	–	–
CCC(C)C(=O)O[C@@]12C[C@@H](C)[C@@]3(O)[C@@H](C=C(CO)C[C@]4(O)C(=O)C(C)=C[C@@H]34)[C@@H]1C2(C)C (some centres not stated)	–	0.83 nmol	1.2 nmol⁻¹
CCC(C)C(=O)O[C@@]12C[C@@H](C)[C@@]3(O)[C@@H](C=C(COC(C)=O)C[C@]4(O)C(=O)C(C)=C[C@@H]34)[C@@H]1C2(C)C (some centres not stated)	–	1.5 nmol	0.7 nmol⁻¹
CC1=C[C@H]2[C@@]3(O)[C@H](C)C[C@]4(OC(=O)C(C)C)[C@H]([C@@H]3C=C(CO)C[C@]2(O)C1=O)C4(C)C	–	0.53 nmol	1.9 nmol⁻¹
CCCCCCCCCCCCCC(=O)O[C@@H]1[C@@H](C)[C@@]2(O)[C@@H](C=C(CO)C[C@]3(O)C(=O)C(C)=C[C@@H]23)[C@@H]2C(C)(C)[C@]12OC(C)=O [PHORBOL MYRISTATE ACETATE]	0.05 µg	0.016 nmol	63 nmol⁻¹
CC(=O)O[C@@]12C[C@@H](C)[C@@]3(O)[C@@H](C=C(CO)C[C@]4(O)C(=O)C(C)=C[C@@H]34)[C@@H]1C2(C)C [PROSTRATIN]	> 7 nmol	–	–
